What was measured:
Adenosine receptor A2a [1] = biological target: Adenosine receptor A2a (Homo sapiens, UniProt P29274); experiment: Binding Affinities to Different Adenosine Receptors: The compounds at different concentrations were incubate with hA1 membrane (from PerkinElmer) and [3H]-8-Cyclopentyl-1,3-dipropylxanthine (DPCPX) for 50 min at 25° C., meanwhile 100 μL 0.5% PEI solution was added into […]-96 GF/B filter plate for 60 min at 4° C., then […]-96 GF/B filter plate was washed twice with 50 ml wash buffer, the membrane mix was transferred into […]-96 GF/B filter plate, and the filter plate was washed 4 times before incubated at 55° C. for 10 min. At last, […] ULTIMA GOLD was added into each well, and CPM was read by TopCount.The compounds at different concentrations were incubate with hA2a membrane (from PerkinElmer) and [3H]-CGS21680 for 90 min at 25° C., meanwhile 100 μL 0.5% PEI solution was added into […]-96 GF/B filter plate for 60 min at 4° C., then […]-96 GF/B filter plate was washed twice with 50 ml wash buffer, the membrane mix was transferred into […]-96 GF/B filter plate, and the filter plate was washed 4 times before incubated at 55° C. for 10 min. At last, […] ULTIMA GOLD was added into each well, and CPM was read by TopCount.The compounds at different concentrations were incubate with hA2b membrane (from PerkinElmer) and [3H]-DPCPX for 60 min at 27° C., and the binding reactions were stopped by rapid filtration through 0.5% BSA coated […]-96 GF/C plates using cell harvester. […]
Adenosine receptor A2a (Homo sapiens, UniProt P29274), sequence (P29274 whole entry): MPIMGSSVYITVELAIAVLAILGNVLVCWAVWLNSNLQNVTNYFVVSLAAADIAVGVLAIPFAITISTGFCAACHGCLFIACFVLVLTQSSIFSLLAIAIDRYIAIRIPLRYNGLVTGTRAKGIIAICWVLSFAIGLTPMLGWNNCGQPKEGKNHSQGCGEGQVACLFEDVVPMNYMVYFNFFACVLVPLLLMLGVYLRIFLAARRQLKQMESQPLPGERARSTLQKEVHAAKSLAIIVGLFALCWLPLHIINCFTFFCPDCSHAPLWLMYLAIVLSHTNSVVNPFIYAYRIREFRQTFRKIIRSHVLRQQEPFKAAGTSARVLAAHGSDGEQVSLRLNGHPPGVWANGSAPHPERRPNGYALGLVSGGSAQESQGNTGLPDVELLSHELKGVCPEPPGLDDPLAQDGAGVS

Adenosine receptor A1 = biological target: T1, Adenosine receptor A1 (Homo sapiens, UniProt P30542); experiment: (§1) FLIPR and cAMP Inhibition Assay: hADORA1/CHO (hA1 expressing) cells (Genscript) were plated at 1×10^4 cells/well into 384-well polystyrene plates one day before starting the experiment. On the day of experiment, the supernatant was discard and replaced with 40 µL of dye (FLIPR calcium 5 Assay Kit) per well and the plates were incubated for 60 mins at 37° C. plus 5% CO2. Then testing compounds were added at different concentrations for FLIPR™ inhibition assay. After a 400 s incubation with compound, […] was added into the cells, and the signal was captured by FLIPR.hA2a/CHO, hA2b/CHO and mA2a/CHO (Genscript) were plated at 5×10^3 cells/well into 384-well polystyrene plates at the day of experiment. Compounds were pre-incubated with cells for 30 min at 37° C., 5% CO2. Then […] was added to the cells and incubated for 30 min at 37° C., 5% CO2. Detection reagent (CISBIO) was added and the plates were incubated for 60 min at room temperature. The signal was captured by Envision.
T1 sequence (P30542 whole entry): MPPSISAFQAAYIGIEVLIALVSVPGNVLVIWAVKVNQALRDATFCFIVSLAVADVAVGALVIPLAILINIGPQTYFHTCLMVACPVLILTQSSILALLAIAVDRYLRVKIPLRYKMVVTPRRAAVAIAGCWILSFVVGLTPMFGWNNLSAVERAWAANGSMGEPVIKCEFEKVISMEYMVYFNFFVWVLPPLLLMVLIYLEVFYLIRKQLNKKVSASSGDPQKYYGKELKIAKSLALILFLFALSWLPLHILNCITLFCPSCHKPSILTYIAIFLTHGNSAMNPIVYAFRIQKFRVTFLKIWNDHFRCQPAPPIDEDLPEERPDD

Adenosine receptor A2a [2] = biological target: Adenosine receptor A2a (Mus musculus, UniProt Q60613); experiment: as §1
Adenosine receptor A2a (Mus musculus, UniProt Q60613), sequence (Q60613 whole entry): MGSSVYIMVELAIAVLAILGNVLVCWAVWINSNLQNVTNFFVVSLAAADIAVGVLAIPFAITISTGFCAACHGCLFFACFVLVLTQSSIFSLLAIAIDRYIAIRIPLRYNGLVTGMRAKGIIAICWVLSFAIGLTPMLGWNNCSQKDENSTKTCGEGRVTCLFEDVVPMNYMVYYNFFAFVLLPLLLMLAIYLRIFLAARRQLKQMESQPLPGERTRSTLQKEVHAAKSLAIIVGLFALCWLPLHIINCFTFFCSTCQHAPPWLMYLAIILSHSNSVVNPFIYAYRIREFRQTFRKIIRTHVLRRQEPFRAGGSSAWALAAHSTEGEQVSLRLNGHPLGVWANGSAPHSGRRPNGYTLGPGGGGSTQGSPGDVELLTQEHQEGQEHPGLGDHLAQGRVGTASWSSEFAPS

Adenosine receptor A2b = biological target: T2, Adenosine receptor A2b (Homo sapiens, UniProt P29275); experiment: as §1
T2 sequence (P29275 whole entry): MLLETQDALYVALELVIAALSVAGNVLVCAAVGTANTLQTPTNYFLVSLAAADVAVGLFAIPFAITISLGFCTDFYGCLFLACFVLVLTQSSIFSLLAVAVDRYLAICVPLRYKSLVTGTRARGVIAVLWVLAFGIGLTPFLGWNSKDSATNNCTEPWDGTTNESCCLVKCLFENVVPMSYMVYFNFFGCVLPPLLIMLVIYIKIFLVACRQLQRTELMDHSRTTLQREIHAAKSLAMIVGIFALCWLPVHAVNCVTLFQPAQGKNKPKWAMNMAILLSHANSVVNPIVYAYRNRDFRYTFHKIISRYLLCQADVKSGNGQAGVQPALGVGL

Compound | IC50 (Adenosine receptor A2a [1]) | IC50 (Adenosine receptor A1) | IC50 (Adenosine receptor A2a [2]) | IC50 (Adenosine receptor A2b)
Nc1nc(-n2ccnn2)c(-c2ccc3nccn3c2)c2nc(Cc3ncccc3F)nn12 | 103 nM | 779 nM | 170 nM | 1110 nM
Cc1cnc2ccc(-c3c(N4CCOCC4)nc(N)n4nc(Cc5c(F)cccc5F)nc34)cn12 | 0.2 nM |  | 2.9 nM | 44.5 nM
